{
  "source": "patent US9782368B2",
  "about": "“Use of N,N-bis-2-mercaptoethyl isophthalamide” (EMERAMED LIMITED, priority 2014, dated 2017)",
  "system": "cigarette smoke (CS)-induced airway disease",
  "assay": "In vivo smoking mouse study I (14-day cigarette smoke exposure)",
  "parameters": "species or system BALB/c mice",
  "experimental": "A mouse model of cigarette smoke (CS)-induced airway disease was developed, in which four groups of BALB/c mice were exposed to CS (nose-only) using a cigarette smoking machine that produces a combination of side-stream and mainstream smoke from filtered research cigarettes, 7 days a week over 2 weeks.\nAs part of a 14-day dose-finding study, three groups of mice were administered NMBI subcutaneously (5, 30 or 150 mg/kg) before each exposure to CS. Inflammatory cell counts in bronchoalveolar lavage (BAL), flow cytometry (FACS) analysis and cytokine analysis in BAL were carried out.\nFemale BALB/c mice (Harlem laboratories, Netherlands) were used in this study. They were housed in plastic cages with absorbent bedding material and were maintained on a 12 hour daylight cycle. Food and water were provided ad libitum. Their care and the experimental protocols were approved by the Regional Ethics Committee on Animal Experiments in Umeå. Mice were 12 weeks of age when the cigarette exposure protocol started.\nAnimals were subjected to inhaled CS (both side-stream and main-stream smoke). The CS exposure was performed in a microprocessor-controlled cigarette smoking machine (TE-10, Teague Enterprises, CA, USA) that produces smoke from research cigarettes (1R5F, University of Kentucky, Lexington, Ky., USA).\nCigarettes are automatically loaded into a wheel, lit, puffed and ejected. Each cigarette was smoked for 10 minutes and the airflow through the machine was set to 12 L/min. Cigarettes were stored at −20° C. until needed. Mice were subjected to 4 cigarettes every 10 minutes×3 (i.e. 12 cigarettes over 30 minutes), once a day, 7 days a week, over two weeks. The smoke was transferred into a smoke tower (EMMS, UK) providing equal and simultaneous exposure to the CS.\nMice were placed into plastic chambers and subjected to CS by “nose-only” inhalation. Control mice were handled every day and breathed room-air, but were not taken out of their cages.\nAccordingly, the 5 treatment groups are as follows: • 1. Daily exposure to clean air (Placebo Group) • 2. Daily exposure to CS (CS-Exposed Placebo Group) • 3. Daily exposure to CS; treated with NBMI at a 5 mg/kg dose (NBMI 5 mg/kg Group) • 4. Daily exposure to CS; treated with NBMI at a 30 mg/kg dose (NBMI 30 mg/kg Group) • 5. Daily exposure to CS; treated with NBMI at a 150 mg/kg dose (NBMI 150 mg/kg Group)\nOn Day 15, mice were exsanguinated and subjected to bronchoalveolar lavage (BAL). The lungs were lavaged four times via the tracheal tube with a total volume of 1 mL+3×1 mL Ca^2+/Mg^2+ free Hanks' balanced salt solution (HBSS, Sigma-Aldrich, Steinheim, Germany).\nThe BAL fluid was then immediately centrifuged (10 minutes, 4° C., 1750 rpm). After removing the supernatant until further analysis, the cell pellet was re-suspended and then diluted with 0.5 mL PBS. Leukocytes were counted manually in a hemocytometer so that 20,000 cells could be loaded and centrifuged using a Cytospin® centrifuge (Shandon® cytospin 3 cyto-centrifuge, cell preparation system).\nCytocentrifuged preparations were stained with May-Grünwald-Giemsa reagent and differential cell counts of pulmonary inflammatory cells (macrophages, neutrophils, lymphocytes, and eosinophils) were made using standard morphological criteria and counting 300 cells per cytospin preparation.\nInflammatory mediators in BAL and serum were analyzed for the presence of interleukin (IL)-1α, IL-1β, IL-2, IL-3, IL-4, IL-5, IL-6, IL-9, IL-10, IL-12p40, IL-12p70, IL-13, IL17, Eotaxin, G-CSF, INFγ, GM-CSF, KC, MCP-1, MIP-1α, MIP-Iβ, RANTES and TNFα. All cytokine analyses were performed simultaneously with a multiplex kit (BioPlex™ Pro Mouse Cytokine 23-plex panel) according to the manufacturer's instructions (Bio-Rad) and analyzed on a Bio-Plex™ system (Luminex Bio-Plex™ 200 System, Bio-Rad, Hercules, Calif.).\nLeukocytes from BAL were analyzed with flow cytometry using a BD FACSort™ (Becton Dickinson, San Jose, Calif.). […]",
  "data": [
    {"smiles": "O=C(NCCS)c1cccc(C(=O)NCCS)c1", "note": "[NBMI, N,N-bis-2-mercaptoethyl isophthalamide]", "values": [
      {"measurement": "MIP-1α levels in BAL vs CS-Exposed Placebo Group", "setting": "5 mg/kg s.c., p<0.05", "result": "lowered"},
      {"measurement": "IL-10 level in serum", "setting": "30 mg/kg s.c.", "result": "increased levels"},
      {"measurement": "Eotaxin level in serum vs CS-Exposed Placebo Group", "setting": "150 mg/kg s.c.", "result": "significantly lowered levels"},
      {"measurement": "IL-1β level in serum vs CS-Exposed Placebo Group", "setting": "150 mg/kg s.c.", "result": "significantly lowered levels"},
      {"measurement": "IL-3 level in serum vs CS-Exposed Placebo Group", "setting": "150 mg/kg s.c.", "result": "significantly lowered levels"},
      {"measurement": "IL-6 level in serum vs CS-Exposed Placebo Group", "setting": "150 mg/kg s.c.", "result": "significantly lowered levels"},
      {"measurement": "MIP-1α level in serum vs CS-Exposed Placebo Group", "setting": "150 mg/kg s.c.", "result": "significantly lowered levels"},
      {"measurement": "RANTES level in serum vs CS-Exposed Placebo Group", "setting": "150 mg/kg s.c.", "result": "significantly lowered levels"},
      {"measurement": "wounds at injection site", "setting": "150 mg/kg s.c., 14 days", "result": "established wounds in the neck"},
      {"measurement": "ulceration", "setting": "5 and 30 mg/kg s.c., 14 days", "result": "no signs of ulceration"},
      {"measurement": "weight change from Day 1 to Day 15", "setting": "CS-exposed, regardless of dose of NBMI", "result": "lost weight significantly"},
      {"measurement": "final weight", "setting": "Day 15, 5 mg/kg s.c., CS-exposed, vs CS-exposed 20.3±0.3 g, p<0.05", "result": "19.5 ± 0.3", "unit": "g"},
      {"measurement": "neutrophils in BAL vs mice just exposed to CS", "setting": "Day 15, 30 mg/kg s.c.", "result": "significantly lower numbers of neutrophils"},
      {"measurement": "neutrophils in BAL vs mice just exposed to CS", "setting": "Day 15, 150 mg/kg s.c.", "result": "significantly lower numbers of neutrophils"},
      {"measurement": "CD4 cells and CD8 cells in BAL fluid", "setting": "all groups (5, 30, 150 mg/kg)", "result": "no significant differences"}
    ]}
  ]
}
